# Where a name gives a salt, the structure may show the parent alone. Read-outs that look alike come from different tables or passages of the source.
# Target: T1, IRAK4 (Homo sapiens, UniProt Q9NWZ3)
# T1 sequence (Q9NWZ3 1-460): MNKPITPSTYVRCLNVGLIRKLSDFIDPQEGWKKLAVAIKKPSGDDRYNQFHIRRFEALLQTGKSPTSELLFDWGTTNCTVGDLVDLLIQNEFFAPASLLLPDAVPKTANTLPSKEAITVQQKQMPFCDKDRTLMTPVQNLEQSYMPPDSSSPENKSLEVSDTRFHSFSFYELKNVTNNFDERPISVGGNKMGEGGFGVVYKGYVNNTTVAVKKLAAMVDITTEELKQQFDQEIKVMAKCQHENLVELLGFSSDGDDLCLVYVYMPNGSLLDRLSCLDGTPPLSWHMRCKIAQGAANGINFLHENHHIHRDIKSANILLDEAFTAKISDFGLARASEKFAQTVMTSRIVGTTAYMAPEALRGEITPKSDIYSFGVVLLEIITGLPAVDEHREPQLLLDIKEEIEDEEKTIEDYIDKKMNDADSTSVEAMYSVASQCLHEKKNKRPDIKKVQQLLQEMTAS
# Experiment: Hibit fluorescence detection of proteolysis (IRAK4-HiBiT in HEK293T cells)
# Type: cell-based
# Design: host or cells: HEK293T (ATCC)
# Summary of the method: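 Degradation read-out: luminescence from lytic HiBiT detection (15 min, room temperature) after 24 h compound exposure (37 °C, 5% CO2) of HEK293T cells transiently expressing IRAK4 fused to a HiBiT tag. Data fitted to a bell-shaped four-parameter model giving two EC50 values.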
# [1] = IRAK4-HiBiT, HEK293T cells, 24 h
# [2] = IRAK4-HiBiT, HEK293T cells, 24 h, read-out: DC50
Compound,Dmax (HEK-293T),DC50 [1],Dmax [1],DC50 [2],"Dmax (HEK-293T, IRAK4-HiBiT, HEK293T cells, 24 h, read-out: Dmax)"
Cn1c(=O)n(C2CCC(=O)NC2=O)c2cccc(CN3CCC4(CC3)CN(C[C@H]3CC[C@H](n5cc(-n6cc(-c7cnn8ccc(N9CCOCC9)nc78)nn6)c(C(F)F)n5)CC3)CCO4)c21 (some centres unmarked) [Example 5],< 60%,< 500 pM,–,–,–
"Cn1c(=O)n(C2CCC(=O)NC2=O)c2cccc(N3CCC4(CCN(CC5CCC(n6cc(-n7cc(-c8cnn9ccc(N%10CCC(O)CC%10)nc89)nn7)c(C(F)F)n6)CC5)CC4)C3)c21 (centres unmarked) [Example 137, 3-(4-(8-(((1r,4r)-4-(3-(difluoromethyl)-4-(4-(5-(4-hydroxypiperidin-1-yl))pyrazolo[1,5-a]pyrimidin-3-yl)-1H-1,2,3-triazol-1-yl)-1H-pyrazol-1-yl)cyclohexyl)methyl)-2,8-diazaspiro[4.5]dec-2-yl)-3-methyl-2-oxo-2,3-dihydro-1H-benzo[d]imidazol-1-yl)piperidine-2,6-dione]",–,–,A (Dmax ≥ 80%),< 500 pM,–
C[C@H]1CN(c2ccn3ncc(-c4cn(-c5cn([C@H]6CC[C@H](CN7CC8(CCN(c9cccc%10c9n(C)c(=O)n%10C9CCC(=O)NC9=O)CC8)C7)CC6)nc5C(F)F)nn4)c3n2)CCO1 (some centres unmarked) [Compound 212],> 80%,–,–,< 500 pM,–
Cn1c(=O)n(C2CCC(=O)NC2=O)c2cccc(N3CCN(C[C@H]4CC[C@H](n5cc(-n6cc(-c7ccc8cc(C(N)=O)cnn78)nn6)c(C(F)F)n5)CC4)CC3)c21 (some centres unmarked) [Example 57],70 to 80%,< 500 pM,–,–,–
Cn1c(=O)n(C2CCC(=O)NC2=O)c2cccc(N3CCC4(CCN(C[C@H]5CC[C@H](n6cc(-n7cc(-c8cnn9cc(C#N)cnc89)nn7)c(C(F)F)n6)CC5)C4)CC3)c21 (some centres unmarked) [Compound 189],60 to 70%,–,–,500 to 1000 pM,–
"Cn1c(=O)n(C2CCC(=O)NC2=O)c2cccc(NC3CCN(C[C@H]4CC[C@H](n5cc(-n6cc(-c7ccc8cc(C(N)=O)cnn78)nn6)c(C(F)F)n5)CC4)CC3)c21 (some centres unmarked) [Example 66, 7-(1-(3-(difluoromethyl)-1-((1r,4r)-4-((4-((1-(2,6-dioxopiperidin-3-yl)-3-methyl-2-oxo-2,3-dihydro-1H-benzo[d]imidazol-4-yl)amino)piperidin-1-yl)methyl)cyclohexyl)-1H-pyrazol-4-yl)-1H-1,2,3-triazol-4-yl)pyrrolo[1,2-b]pyridazine-3-carboxamide]",70 to 80%,< 500 pM,–,–,–
Cn1c(=O)n(C2CCC(=O)NC2=O)c2cccc(N3CCN(C4CCN(C[C@H]5CC[C@H](n6cc(-n7cc(-c8cnn9ccc(N%10CCC(O)CC%10)nc89)nn7)c(C(F)F)n6)CC5)CC4)CC3)c21 (some centres unmarked) [Example 138],> 80%,< 500 pM,–,–,–
CN1CCN(c2ccn3ncc(-c4cn(-c5cn([C@H]6CC[C@H](CN7CCC8(CCN(c9cccc%10c9n(C)c(=O)n%10C9CCC(=O)NC9=O)CC8)C7)CC6)nc5C(F)F)nn4)c3n2)CC1 (some centres unmarked) [Compound 232],> 80%,–,–,500 to 1000 pM,–
"Cn1c(=O)n(C2CCC(=O)NC2=O)c2cccc(N3C4CCC3CN(C[C@H]3CC[C@H](n5cc(-n6cc(-c7cnn8ccc(N9CCOCC9)nc78)nn6)c(C(F)F)n5)CC3)C4)c21 (some centres unmarked) [Example 48, 3-(4-((1r,4r)-4-(3-(difluoromethyl)-4-(4-(5-morpholinopyrazolo[[1,5-a]pyrimidin-3-yl)-1H-1,2,3-triazol-1-yl)-1H-pyrazol-1-yl)cyclohexyl)-3,8-diazabicyclo[3.2.1]oct-8-yl)-3-methyl-2-oxo-2,3-dihydro-1H-benzo[d]imidazol-1-yl)piperidine-2,6-dione]",60 to 70%,> 5000 pM,–,–,–
Cn1c(=O)n(C2CCC(=O)NC2=O)c2cccc(CN3CCC4(CC3)CCN(C[C@H]3CC[C@H](n5cc(-n6cc(-c7cnn8ccc(N9CCOCC9)nc78)nn6)c(C(F)F)n5)CC3)CC4)c21 (some centres unmarked) [Example 6],< 60%,< 500 pM,–,–,–
"CN(Cc1cccc2c1n(C)c(=O)n2C1CCC(=O)NC1=O)CC1CCN(C[C@H]2CC[C@H](n3cc(-n4cc(-c5cnn6ccc(N7CCOCC7)nc56)nn4)c(C(F)F)n3)CC2)CC1 (some centres unmarked) [Example 3, 3-(4-((((1-(((1r,4r)-4-(3-(difluoromethyl)-4-(4-(5-morpholinopyrazolo[1,5-a]pyrimidin-3-yl)-1H-1,2,3-triazol-1-yl)-1H-pyrazol-1-yl)cyclohexyl)methyl)piperidin-4-yl)methyl)(methyl)amino)methyl)-3-methyl-2-oxo-2,3-dihydro-1H-benzo[d]imidazol-1-yl)piperidine-2,6-dione]",60 to 70%,< 500 pM,–,–,–
Cn1c(=O)n(C2CCC(=O)NC2=O)c2cccc(N3CCC4(CCN(C[C@H]5CC[C@H](n6cc(-n7cc(-c8cnn9ccc(NCCC(C)(C)O)nc89)nn7)c(C(F)F)n6)CC5)CC4)C3)c21 (some centres unmarked) [Compound 240],> 80%,–,–,< 500 pM,–
Cn1c(=O)n(C2CCC(=O)NC2=O)c2cccc(C#CCOC3CCN(C[C@H]4CC[C@H](n5cc(-n6cc(-c7cnn8ccc(N9CCOCC9)nc78)nn6)c(C(F)F)n5)CC4)CC3)c21 (some centres unmarked) [Example 7],60 to 70%,< 500 pM,–,–,–
"Cn1c(=O)n(C2CCC(=O)NC2=O)c2cccc(N3CCC4(CCCN(C[C@H]5CC[C@H](n6cc(-n7cc(-c8cnn9ccc(N%10CCOCC%10)nc89)nn7)c(C(F)F)n6)CC5)C4)CC3)c21 (some centres unmarked) [Example 53, 3-(4-(2-(((1r,4r)-4-(3-(difluoromethyl)-4-(4-(5-morpholinopyrazolo[1,5-a]pyrimidin-3-yl)-1H-1,2,3-triazol-1-yl)-1H-pyrazol-1-yl)cyclohexyl)methyl)-2,9-diazaspiro[5.5]undecan-9-yl)-3-methyl-2-oxo-2,3-dihydro-1H-benzo[d]imidazol-1-yl)piperidine-2,6-dione]",70 to 80%,500 to 1000 pM,–,–,–
"Cn1c(=O)n(C2CCC(=O)NC2=O)c2cccc(N3CCC(N4CCN(C[C@H]5CC[C@H](n6cc(-n7cc(-c8cnn9ccc(N%10CCC[C@H](N)C%10)nc89)nn7)c(C(F)F)n6)CC5)CC4)CC3)c21 (stereo partly drawn) [Example 150, 3-(4-(4-(1R,4R)-4-(4-(4-(5-(S)-3-aminopiperidin-1-yl)pyrazolo[1,5-a]pyrimidin-3-yl)-1H-1,2,3-triazol-1-yl)-3-(difluoromethyl)-1H-pyrazol-1-yl)cyclohexyl)methyl)piperazin-1-yl)piperidin-1-yl)-3-methyl-2-oxo-2,3-dihydro-1H-benzoimidazol-1-yl)piperidine-2,6-dione hydrochloride]",> 80%,< 500 pM,–,–,–
Cn1c(=O)n(C2CCC(=O)NC2=O)c2cccc(NCC3CC4(CCN(C[C@H]5CC[C@H](n6cc(-n7cc(-c8cnn9ccc(N%10CCOCC%10)nc89)nn7)c(C(F)F)n6)CC5)CC4)C3)c21 (some centres unmarked) [Example 9],< 60%,< 500 pM,–,–,–
Cn1c(=O)n(C2CCC(=O)NC2=O)c2cccc(N3CCOC4(CCN(C[C@H]5CC[C@H](n6cc(-n7cc(-c8ccc9cc(C(N)=O)cnn89)nn7)c(C(F)F)n6)CC5)CC4)C3)c21 (some centres unmarked) [Example 88],70 to 80%,< 500 pM,–,–,–
Cn1c(=O)n(C2CCC(=O)NC2=O)c2cccc(N3CCC4(CC3)CN(C[C@H]3CC[C@H](n5cc(-n6cc(-c7cnn8ccc(N9CCOCC9)nc78)nn6)c(C(F)F)n5)CC3)C4)c21 (some centres unmarked) [Example 47],70 to 80%,< 500 pM,–,–,–
"Cc1c(/C=C2\C(=O)Nc3ccc(S(=O)(=O)Nc4ccc(F)cc4)cc32)[nH]c2cc(N3CCN(CC4CCN(c5ccc(C(=O)NC6CCC(=O)NC6=O)c(F)c5)CC4)CC3)ccc12 (centres unmarked) [Example 22, N-(2,6-dioxopiperidin-3-yl)-2-fluoro-4-(4-{[4-(2-{[(3Z)-5-[(4-fluorophenyl)sulfamoyl]-2-oxo-2,3-dihydro-1H-indol-3-ylidene]methyl}-3-methyl-1H-indol-6-yl)piperazin-1-yl]methyl}piperidin-1-yl)benzamide]",–,–,–,> 5000 pM,< 60%
"Cn1c(=O)n(C2CCC(=O)NC2=O)c2cccc(CN3CC4(CCN(C[C@H]5CC[C@H](n6cc(-n7cc(-c8cnn9ccc(N%10CCOCC%10)nc89)nn7)c(C(F)F)n6)CC5)CC4)C3)c21 (some centres unmarked) [Example 13, 3-(4-((7-(((1r,4r)-4-(3-(difluoromethyl)-4-(4-(5-morpholinopyrazolo[1,5-a]pyrimidin-3-yl)-1H -1,2,3-triazol-1-yl)-1H-pyrazol-1-yl)cyclohexyl)methyl)-2,7-diazaspiro[3.5]nonan-2-yl)methyl)-3-methyl-2-oxo-2,3-dihydro-1H-benzo[d]imidazol-1-yl)piperidine-2,6-dione]",> 80%,< 500 pM,–,–,–
"Cn1c(=O)n(C2CCC(=O)NC2=O)c2cccc(NC(=O)C3CCN(C[C@H]4CC[C@H](n5cc(-n6cc(-c7ccc8cc(C(N)=O)cnn78)nn6)c(C(F)F)n5)CC4)CC3)c21 (some centres unmarked) [Example 69, 7-(1-(3-(difluoromethyl)-1-((1r,4r)-4-((4-((1-(2,6-dioxopiperidin-3-yl)-3-methyl-2-oxo-2,3-dihydro-1H-benzo[d]imidazol-4-yl)carbamoyl)piperidin-1-yl)methyl)cyclohexyl)-1H-pyrazol-4-yl)-1H-1,2,3-triazol-4-yl)pyrrolo[1,2-b]pyridazine-3-carboxamide]",> 80%,> 5000 pM,–,–,–
Cn1c(=O)n(C2CCC(=O)NC2=O)c2cccc(C3CN(C4CCN(C[C@H]5CC[C@H](n6cc(-n7cc(-c8ccc9cc(C(N)=O)cnn89)nn7)c(C(F)F)n6)CC5)CC4)C3)c21 (some centres unmarked) [Example 82],> 80%,< 500 pM,–,–,–
